Reference: the supplement of paper PMC10331698
± gives the standard deviation of the averaged measurements.

Experiments:
Assay in all cases: level (log10 ratio to DMSO vehicle control); higher = higher biomarker level / cell amount than vehicle control
[1] = compound: C[C@@H]1C[C@H]2[C@@H]3CCC4=CC(=O)C=C[C@]4(C)[C@@]3(F)[C@@H](O)C[C@]2(C)[C@@]1(O)C(=O)COP(=O)(O)O [Dexamethasone sodium phosphate] (in DMSO)
Protocol: (§1)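 BioMAP Diversity Plus panel of 12 human primary cell co-culture systems (3C, 4H, LPS, SAg, BT, BF4T, BE3C, CASM3C, HDF3CGF, KF3CT, MyoF, Mphg). Compounds were added 1 h before stimulation and left for 24 h (MyoF 48 h; BT 72 h for soluble read-outs or 6 d for IgG). Biomarkers were read by ELISA, cytotoxicity by SRB, PBMC viability and proliferation by Alamar Blue. Each well value was divided by the mean of 8 DMSO control wells on the same plate and log10 transformed; duplicate blinded samples were tested at 4 concentrations.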

[2] = compound: CO[Si](C)(CCC(F)(F)C(F)(F)C(F)(F)C(F)(F)C(F)(F)C(F)(F)F)OC [Dimethoxymethyl((perfluorohexyl)ethyl)silane] (in DMSO)
Protocol: as §1

[3] = compound: NS(=O)(=O)C(F)(F)C(F)(F)C(F)(F)C(F)(F)C(F)(F)C(F)(F)C(F)(F)C(F)(F)F [Perfluorooctanesulfonamide] (in DMSO)
Protocol: as §1

[4] = compound: CN(C(=O)C(F)(F)C(F)(F)C(F)(F)F)[Si](C)(C)C [N-Methyl-N-trimethylsilylheptafluorobutyramide] (in DMSO)
Protocol: as §1

Perfluoroundecanoic acid = compound: O=C(O)C(F)(F)C(F)(F)C(F)(F)C(F)(F)C(F)(F)C(F)(F)C(F)(F)C(F)(F)C(F)(F)C(F)(F)F [Perfluoroundecanoic acid] (in DMSO); settings: 6700 nM
Protocol: as §1

[5] = compound: O=C(O)C(F)(F)OC(F)(F)C(F)(F)OC(F)(F)C(F)(F)OC(F)(F)C(F)(F)C(F)(F)C(F)(F)F [Perfluoro-3,6,9-trioxatridecanoic acid] (in DMSO); settings: 6700 nM
Protocol: as §1

[6] = compound: O=S(=O)(O)C(F)(F)C(F)(F)C(F)(F)C(F)(F)C(F)(F)C(F)(F)C(F)(F)F [Perfluoroheptanesulfonic acid] (in DMSO)
Protocol: as §1

[7] = compound: C=C(C)C(=O)OCCC(F)(F)C(F)(F)C(F)(F)C(F)(F)C(F)(F)C(F)(F)C(F)(F)C(F)(F)F [8:2 Fluorotelomer methacrylate] (in DMSO)
Protocol: as §1

Test System | level (log10) ([1]; 1500 nM) | level (log10) ([1]; 4400 nM) | level (log10) ([1]; 13000 nM) | level (log10) ([1]; 40000 nM) | level (log10) ([2]; 6700 nM) | level (log10) ([2]; 20000 nM) | level (log10) ([3]; 6700 nM) | level (log10) ([3]; 20000 nM) | level (log10) ([4]; 6700 nM) | level (log10) ([4]; 20000 nM) | level (log10) ([4]; 60000 nM) | level (log10) (Perfluoroundecanoic acid) | level (log10) [5] | level (log10) ([6]; 1500 nM) | level (log10) ([6]; 4400 nM) | level (log10) ([6]; 13000 nM) | level (log10) ([6]; 40000 nM) | level (log10) ([7]; 6700 nM) | level (log10) ([7]; 20000 nM)
HDF3CGF:CD106/VCAM-1 | -0.006 ± 0.057 | -0.0145 ± 0.035 | -0.054 ± 0.045 | -0.121 ± 0.073 | -0.0175 ± 0.00071 | 0.001 ± 0.0085 | -0.147 ± 0.027 | -0.364 ± 0.023 | -0.0155 ± 0.0092 | -0.0165 ± 0.0021 | -0.024 ± 0.0028 | -0.213 ± 0.044 | -0.479 ± 0.037 | -0.0245 ± 0.039 | -0.024 ± 0.0042 | -0.0585 ± 0.0064 | -0.101 ± 0.0092 | -0.0105 ± 0.013 | -0.052 ± 0.064
MyoF:Collagen I | 0.032 ± 0.021 | 0.032 ± 0.0057 | 0.006 ± 0.0071 | 0.027 ± 0.0042 | -0.0075 ± 0.0064 | 0.007 ± 0.0014 | -0.018 ± 0.014 | -0.236 ± 0.0028 | 0.0025 ± 0.019 | 0.007 ± 0.023 | 0.01 ± 0.0057 | -0.421 ± 0.0092 | -0.598 ± 0.0057 | -0.0035 ± 0.0021 | 0.0135 ± 0.005 | -0.009 ± 0.0085 | 0.0105 ± 0.011 | -0.0335 ± 0.015 | -0.0125 ± 0.0035
CASM3C:CD142/Tissue Factor | 0.101 ± 0.034 | 0.099 ± 0.042 | 0.0875 ± 0.023 | 0.079 ± 0.0028 | -0.001 ± 0.011 | -0.0075 ± 0.005 | 0.021 ± 0.011 | 0.082 ± 0.04 | -0.021 ± 0.016 | -0.012 ± 0.0028 | 0.0135 ± 0.026 | -0.066 ± 0.041 | 0.013 ± 0.02 | -0.0305 ± 0.035 | -0.0125 ± 0.019 | -0.026 ± 0.024 | -0.04 ± 0.068 | -0.023 ± 0.018 | -0.0195 ± 0.057
BE3C:MMP-9 | -0.02 ± 0.0028 | -0.0185 ± 0.013 | -0.013 ± 0.0028 | -0.036 ± 0.0099 | -0.006 ± 0.0042 | -0.017 ± 0.013 | -0.101 ± 0.016 | -0.131 ± 0.0014 | -0.023 ± 0.0042 | -0.012 ± 0.0085 | 0.015 ± 0.02 | -0.139 ± 0.013 | -0.4295 ± 0.0021 | -0.0015 ± 0.032 | -0.0125 ± 0.081 | -0.025 ± 0.041 | 0.0055 ± 0.04 | -0.0125 ± 0.06 | -0.024 ± 0.085
lMphg:CD106/VCAM-1 | -0.018 ± 0.0071 | -0.039 ± 0.0028 | -0.0615 ± 0.013 | -0.086 ± 0.0042 | 0.009 ± 0.021 | -0.009 ± 0.028 | 0.006 ± 0.014 | 0.0365 ± 0.0021 | -0.025 ± 0.0028 | -0.0055 ± 0.025 | -0.028 ± 0.042 | -0.004 ± 0.0057 | -0.017 ± 0.011 | -0.0135 ± 0.0035 | -0.0285 ± 0.021 | -0.0115 ± 0.016 | -0.019 ± 0.0014 | -0.0245 ± 0.0035 | -0.0315 ± 0.016
lMphg:IL-1alpha | -0.0345 ± 0.005 | -0.0335 ± 0.0092 | -0.102 ± 0.05 | -0.096 ± 0.0099 | -0.032 ± 0.0014 | 0.0125 ± 0.073 | 0.053 ± 0.05 | 0.228 ± 0.028 | -0.038 ± 0.0014 | -0.034 ± 0.0071 | 0.017 ± 0.052 | 0.022 ± 0.045 | 0.013 ± 0.025 | 0.0075 ± 0.036 | -0.0045 ± 0.028 | 0 ± 0.042 | 0.073 ± 0.044 | -0.007 ± 0.028 | 0.0165 ± 0.073
